# Where two headings read alike, the source gives them in different places.
# Assays:
# E. coli MISC 208 = experiment: Spectrophotometric hydrolysis assay of β-lactamase released by permeabilizing agent, cefaclor as substrate; assay type: cell-based
# Method: (§1) H., et al., A.A.C. 1:283-288 (1972). […] The nitrocefin was prewarmed to 37° C.
# The experiment in Example 1 was repeated using E. coli MISC 208 and cefaclor as substrate in the hydrolysis assays.
# OXA-2 = OXA-2 (Escherichia coli, UniProt P0A1V9); experiment: Indirect reagent disk test, antibiotic inactivation; assay type: cell-based; conditions: enzyme OXA-2; indirect method
# Sequence of OXA-2 (P0A1V9 22-275): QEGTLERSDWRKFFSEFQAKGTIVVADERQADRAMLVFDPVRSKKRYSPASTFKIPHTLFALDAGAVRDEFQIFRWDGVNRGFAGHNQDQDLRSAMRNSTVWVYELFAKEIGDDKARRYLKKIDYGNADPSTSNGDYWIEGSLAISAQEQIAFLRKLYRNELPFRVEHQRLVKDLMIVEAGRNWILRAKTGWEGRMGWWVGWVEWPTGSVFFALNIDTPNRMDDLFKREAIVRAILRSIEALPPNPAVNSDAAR
# Method: (§3) The indirect method was performed essentially as described in Example 4, except the antibiotic disks were as indicated. An indentation of a zone of inhibition around the antibiotic dish was interpreted as positive for presence of antibiotic-inactivating factor.
# SHV-1 = SHV-1 (Klebsiella pneumoniae, UniProt P0AD64); experiment: as above; assay type: cell-based; conditions: enzyme SHV-1; indirect method
# Sequence of SHV-1 (P0AD64 22-286): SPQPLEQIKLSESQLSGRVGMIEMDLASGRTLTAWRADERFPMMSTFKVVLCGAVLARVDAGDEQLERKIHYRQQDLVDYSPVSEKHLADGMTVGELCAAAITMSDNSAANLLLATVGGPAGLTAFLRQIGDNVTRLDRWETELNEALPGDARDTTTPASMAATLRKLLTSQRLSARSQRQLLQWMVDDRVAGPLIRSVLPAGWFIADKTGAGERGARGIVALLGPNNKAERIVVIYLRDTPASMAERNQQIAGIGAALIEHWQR
# Excerpt: (§4) A solution of equal parts of physiological saline and Tris EDTA (Sigma Chemicals) is made. • 2. A 20 microliter aliquot of the permeabilizing agent solution was placed onto a filter paper disk and allowed to dry. […] The filter paper disk impregnated with the permeabilizing agent was rehydrated with 20 microliters of sterile physiological saline. • 2. Using a cotton swab or loop, a test organism was rubbed onto the rehydrated disk. • 3. A Mueller Hinton Agar plate was inoculated with a 0.5 McFarland of E. coli ATCC 25922. • 4. A cefoxitin disk was placed onto the surface of the agar plate. The rehydrated disk inoculated with the test organism next was placed next to the cefoxitin disk, at a distance of about 0.5-1.0 mm. • 5. The agar plate was incubated at 37° C. for about 16 hours, or overnight. • 6. Distortion of the cefoxitin zone was interpreted as a positive result (i.e., the presence of an antibiotic-inactivating factor was detected), whereas lack of distortion of the cefoxitin zone was interpreted as a negative result.
# as §3
# Class A Carbapenemases = experiment: Indirect TE disk test for detection of Class A Carbapenemases; assay type: cell-based; conditions: for CACs detected by indirect TE disk test: 21 CAC-producing strains, E. coli ATCC 25922 lawn; for False positive results in indirect TE disk test: strains producing non-CAC enzymes (metallo/OXA carbapenemases, AmpC, ESBLs)
# Method: Methods: 21 strains that produced Class A Carbapenemases (“CACs”) comprising 12 Klebsiella pneumoniae, 5 Enterobacter cloacae, 2 Escherichia coli, and 2 Serratia marcescens; 10 strains of Acinetobacter baumannii, Pseudomonas aeruginosa, and S. marcescens that produced either a metallo-beta-lactamase or an OXA carbapenemases, and 11 strains of Enterobacteriaceae that produced either AmpC β-lactamases or ESBLs were investigated. The test was performed essentially as described in Example 5, with any changes noted below. The indirect test involved inoculation of the surface of a Mueller-Hinton (MH) agar plate with a lawn of E. coli ATCC 25922, not the test organism. Immediately prior to incubation, a premoistened TE disk was inoculated with several colonies of the test organism and placed face down on the MH agar adjacent to a disk containing one of the carbapenems, imipenem (IPM), meropenem (MER), or ertapenem (ERT). After overnight incubation, an indentation of the zone inhibition was interpreted as positive.
# SHV-4 = SHV-4 (Klebsiella pneumoniae, UniProt P37323); experiment: Indirect reagent disk test, antibiotic inactivation; assay type: cell-based; conditions: enzyme SHV-4; indirect method
# Sequence of SHV-4 (P37323 whole entry): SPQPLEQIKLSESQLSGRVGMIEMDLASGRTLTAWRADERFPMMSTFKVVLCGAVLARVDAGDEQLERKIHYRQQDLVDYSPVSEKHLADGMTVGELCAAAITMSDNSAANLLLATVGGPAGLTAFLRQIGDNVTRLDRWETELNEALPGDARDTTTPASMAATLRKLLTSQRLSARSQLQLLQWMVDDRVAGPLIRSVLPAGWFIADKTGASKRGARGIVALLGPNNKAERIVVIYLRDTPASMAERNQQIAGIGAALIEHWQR
# Excerpt: as §4, §3
# FOX-1 = experiment: as above; assay type: cell-based; conditions: enzyme FOX-1; indirect method
# Excerpt: as §4, §3
# OXA-4 = experiment: as above; assay type: cell-based; conditions: enzyme OXA-4; indirect method
# Method: as §3
# TEM-46 = assay type: cell-based; conditions: enzyme TEM-46; indirect method
# Method: as §3
# SHV-2 = SHV-2 (Escherichia coli, UniProt P0A9Z7); experiment: Indirect reagent disk test, antibiotic inactivation; assay type: cell-based; conditions: enzyme SHV-2; indirect method
# Sequence of SHV-2 (P0A9Z7 22-286): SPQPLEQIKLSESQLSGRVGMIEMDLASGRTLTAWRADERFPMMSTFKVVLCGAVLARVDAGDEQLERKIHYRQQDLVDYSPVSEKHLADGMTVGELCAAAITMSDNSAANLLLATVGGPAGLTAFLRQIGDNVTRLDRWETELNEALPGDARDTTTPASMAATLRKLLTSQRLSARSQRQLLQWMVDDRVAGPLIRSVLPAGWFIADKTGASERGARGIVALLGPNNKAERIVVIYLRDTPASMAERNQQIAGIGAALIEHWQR
# LAT-1 = experiment: as above; assay type: cell-based; conditions: enzyme LAT-1; indirect method; further: key: P, positive; N, negative; WP, weak positive (slight flattening); ?, results were questionable
# Excerpt: (§2) • 1. […] Performing and Interpreting the Test • 1.
# L-1 = L-1 (Stenotrophomonas maltophilia, UniProt P52700); experiment: as above; assay type: cell-based; conditions: enzyme L-1; indirect method; further: key: P, positive; N, negative; WP, weak positive (slight flattening); ?, results were questionable
# Sequence of L-1 (P52700 34-290): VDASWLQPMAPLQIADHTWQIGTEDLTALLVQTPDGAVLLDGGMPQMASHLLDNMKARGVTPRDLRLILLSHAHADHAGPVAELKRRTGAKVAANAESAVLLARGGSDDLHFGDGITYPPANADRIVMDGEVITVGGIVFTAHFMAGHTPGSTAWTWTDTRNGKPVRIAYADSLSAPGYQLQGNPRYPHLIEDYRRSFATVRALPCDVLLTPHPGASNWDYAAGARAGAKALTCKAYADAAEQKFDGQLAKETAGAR
# Excerpt: as §2
# OXA-5 = OXA-5 (Pseudomonas aeruginosa, UniProt Q00982); experiment: as above; assay type: cell-based; conditions: enzyme OXA-5; indirect method
# Sequence of OXA-5 (Q00982 20-267): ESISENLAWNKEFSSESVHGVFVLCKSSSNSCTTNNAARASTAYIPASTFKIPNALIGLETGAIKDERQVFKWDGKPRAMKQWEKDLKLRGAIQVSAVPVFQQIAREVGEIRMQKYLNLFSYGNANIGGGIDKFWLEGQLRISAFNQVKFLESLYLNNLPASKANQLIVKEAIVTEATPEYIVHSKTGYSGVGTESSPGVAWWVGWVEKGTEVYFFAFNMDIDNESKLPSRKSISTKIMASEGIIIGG
# Method: as §3
# OXA-6 = experiment: as above; assay type: cell-based; conditions: enzyme OXA-6; indirect method
# Method: as §3
# OXA-3 = OXA-3 (Pseudomonas aeruginosa, UniProt Q51429); experiment: as above; assay type: cell-based; conditions: enzyme OXA-3; indirect method
# Sequence of OXA-3 (Q51429 22-275): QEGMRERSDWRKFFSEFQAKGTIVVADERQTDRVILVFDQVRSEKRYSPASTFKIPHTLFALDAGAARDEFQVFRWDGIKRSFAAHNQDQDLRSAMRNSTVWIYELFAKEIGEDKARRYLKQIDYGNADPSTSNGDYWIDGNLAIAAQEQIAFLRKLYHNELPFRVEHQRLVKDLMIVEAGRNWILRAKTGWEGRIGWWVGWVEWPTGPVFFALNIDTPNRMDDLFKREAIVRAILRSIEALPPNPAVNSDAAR
# PSE-1 = PSE-1 (Pseudomonas aeruginosa, UniProt Q03170); experiment: as above; assay type: cell-based; conditions: enzyme PSE-1; indirect method
# Sequence of PSE-1 (Q03170 18-288): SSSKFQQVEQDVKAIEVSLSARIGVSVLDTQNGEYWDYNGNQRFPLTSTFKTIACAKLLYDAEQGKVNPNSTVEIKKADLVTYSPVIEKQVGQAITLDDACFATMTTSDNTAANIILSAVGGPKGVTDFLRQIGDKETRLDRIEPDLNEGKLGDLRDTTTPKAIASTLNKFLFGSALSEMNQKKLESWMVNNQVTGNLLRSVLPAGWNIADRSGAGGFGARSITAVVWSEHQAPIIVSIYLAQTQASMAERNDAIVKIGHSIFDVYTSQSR
# Excerpt: as §2
# Klebsiella spp. isolates = experiment: Antimicrobial susceptibility by NCCLS microdilution (MIC); assay type: cell-based
# Method: Thirty recent isolates of Klebsiella spp. were collected from patients in United States hospitals.
# Antimicrobial susceptibility was determined by NCCLS microdilution methodology using an investigational Microscan dehydrated panel.
# [1] = tested on: β-lactamases of Klebsiella isolates (AmpC); experiment: Isoelectric focusing with inhibitor overlays; assay type: biochemical, Klebsiella spp.; conditions: nine of ten positive Klebsiella isolates; 1000 μM overlay
# Method: Crude sonicates were subjected to analytical isoelectric focusing (IEF) on an ampholine polyacrylamide gel (pH range 3.5-9.5) on a flatbed apparatus (Multiphor LKB). Inhibitor overlays of the IEF gel were performed with 1000 μM clavulanic acid and cloxacillin.
# E. coli V1104 = experiment: Spectrophotometric hydrolysis assay of β-lactamase released by permeabilizing agent, nitrocefin as substrate; assay type: cell-based
# Method: as §1
# The experiment in Example 1 was repeated using E. coli V1104 to evaluate a variety of permeabilizing agents. Nitrocefan was the hydrolysis substrate.
# OXA-7 = OXA-7 (Escherichia coli, UniProt P35695); experiment: Indirect reagent disk test, antibiotic inactivation; assay type: cell-based; conditions: enzyme OXA-7; indirect method
# Sequence of OXA-7 (P35695 21-266): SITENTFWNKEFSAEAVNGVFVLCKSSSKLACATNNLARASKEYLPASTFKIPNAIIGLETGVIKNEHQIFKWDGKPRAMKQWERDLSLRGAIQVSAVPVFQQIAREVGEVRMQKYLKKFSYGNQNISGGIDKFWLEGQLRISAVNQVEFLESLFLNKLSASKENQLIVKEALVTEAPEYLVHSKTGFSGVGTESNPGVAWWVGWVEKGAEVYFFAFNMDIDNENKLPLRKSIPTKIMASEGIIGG
# Excerpt: as §4
# (§5) An indentation of a zone of inhibition around the antibiotic dish was interpreted as positive for presence of antibiotic-inactivating factor.
# AmpC = conditions: enzyme AmpC; indirect method
# Excerpt: as §4, §5
# ACT-1 = experiment: Indirect reagent disk test, antibiotic inactivation; assay type: cell-based; conditions: enzyme ACT-1; indirect method
# Excerpt: as §4, §5
# [2] = tested on: E. coli MISC 208 (which produces the extended spectrum β-lactamase SHV-2); conditions: 0° C.
# Method: In this Example, E. coli MISC 208 (which produces the extended spectrum β-lactamase SHV-2) was used as a test organism and nitrocefin was the substrate in spectrophotometric hydrolysis assays. The E. coli strain was harvested directly into 100 microliters of Mueller Hinton Broth and mixed with 100 microliters of the permeabilizing agent.
# In the hydrolysis assay, units of activity are calculated as:
# Briefly, a 100 μM solution of nitrocefin was used as a substrate. The nitrocefin was prewarmed to 37° C. The hydrolysis assay was performed at 37° C. at a wavelength of 389.5 with an extinction coefficient of −0.024. An appropriate cuvette was filled with 0.9 ml of the prewarmed nitrocefin substrate and 100 ul of permeabilized bacterial suspension was added. The contents of the cuvette were immediately mixed by inversion and the cuvette was placed in a spectrophotometer. Absorbance was assayed at 5-second intervals for up to 5 minutes with the 37° C. temperature maintained by means of a circulating water bath that warmed the cuvette block. When the assay was complete, the activity was calculated according to the above formula.
Compound,Reagent disk test result (indentation of inhibition zone = antibiotic inactivation) (OXA-2),Reagent disk test result (indentation of inhibition zone = antibiotic inactivation) (OXA-4),Reagent disk test result (indentation of inhibition zone = antibiotic inactivation) (TEM-46),Reagent disk test result (indentation of inhibition zone = antibiotic inactivation) (L-1),Reagent disk test result (indentation of inhibition zone = antibiotic inactivation) (OXA-5),Reagent disk test result (indentation of inhibition zone = antibiotic inactivation) (OXA-6),Reagent disk test result (indentation of inhibition zone = antibiotic inactivation) (OXA-3),Reagent disk test result (indentation of inhibition zone = antibiotic inactivation) (PSE-1),other results
Polymyxin B,,,,,,,,,Units of β-lactamase Activity (Cefaclor as substrate) (E. coli MISC 208; agent 10 μg/ml): 3.8; Units of β-lactamase Activity (Cefaclor as substrate) (E. coli MISC 208; agent 30 μg/ml): 15
"C[C@@H](O)[C@H]1C(=O)N2C(C(=O)O)=C(S[C@@H]3CN[C@H](C(=O)N(C)C)C3)[C@H](C)[C@H]12 [MEM, meropenem]",WP?,N,N,N,N,N,N,,Reagent disk test result (indentation of inhibition zone = antibiotic inactivation) (SHV-1): N; CACs detected by indirect TE disk test (Class A Carbapenemases): 19/21; False positive results in indirect TE disk test (Class A Carbapenemases): no false positive results; Reagent disk test result (indentation of inhibition zone = antibiotic inactivation) (SHV-4): N; Reagent disk test result (indentation of inhibition zone = antibiotic inactivation) (FOX-1): N; Reagent disk test result (indentation of inhibition zone = antibiotic inactivation) (SHV-2): N; Reagent disk test result (indentation of inhibition zone = antibiotic inactivation) (LAT-1): N
"CO[C@@]1(NC(=O)Cc2cccs2)C(=O)N2C(C(=O)O)=C(COC(N)=O)CS[C@@H]21 [FOX, cefoxitin]",,N,N,N,N,N,,N^n,"Reagent disk test result (indentation of inhibition zone = antibiotic inactivation) (SHV-1): N; Reagent disk test result (indentation of inhibition zone = antibiotic inactivation) (SHV-4): N; Reagent disk test result (indentation of inhibition zone = antibiotic inactivation) (SHV-2): N; MIC (Klebsiella spp. isolates; thirty Klebsiella spp. isolates): ≥ 16 µg/mL; MIC (Klebsiella spp. isolates; thirty isolates of Klebsiella spp., read-out: MIC): ≥ 16 µg/mL"
"C[C@@H](O)[C@H]1C(=O)N2C(C(=O)O)=C(SCCN=CN)C[C@H]12 [IPM, imipenem]",,N,N,,,N,,,"Reagent disk test result (indentation of inhibition zone = antibiotic inactivation) (FOX-1): N; MIC (Klebsiella spp. isolates; the one positive Klebsiella isolate producing a carbapenem-hydrolyzing enzyme, read-out: MIC): 64 µg/mL"
Cc1onc(-c2ccccc2Cl)c1C(=O)N[C@@H]1C(=O)N2[C@@H]1SC(C)(C)[C@@H]2C(=O)O [cloxacillin],,,,,,,,,"Inhibition of β-lactamases (pIs 7.2, 7.7 or ≧9.0) in IEF inhibitor overlay [1]: inhibited"
"CC1(C)S[C@@H]2[C@H](NC(=O)[C@H](N)c3ccccc3)C(=O)N2[C@H]1C(=O)O [AM, ampicillin]",,,,N,,,,,
"CO[C@@]1(NC(=O)CSCC#N)C(=O)N2C(C(=O)O)=C(CSc3nnnn3C)CS[C@@H]21 [CMZ, cefmetazole]",,,N,,,,,P^m,
benzalkonium chloride,,,,,,,,,Units of β-lactamase Activity (Cefaclor as substrate) (E. coli MISC 208; agent 200 μg/ml): 16
"CC(C)(O/N=C(\C(=O)N[C@@H]1C(=O)N2C(C(=O)[O-])=C(C[n+]3ccccc3)CS[C@H]12)c1csc(N)n1)C(=O)O [Ceftazidime, ceftazidime]",N,N,,N,N,N,N,N,Units of β-lactamase Activity (Nitrocefin as substrate) (E. coli V1104): 196; Reagent disk test result (indentation of inhibition zone = antibiotic inactivation) (SHV-1): N; Reagent disk test result (indentation of inhibition zone = antibiotic inactivation) (FOX-1): N; Reagent disk test result (indentation of inhibition zone = antibiotic inactivation) (OXA-7): N
"CO/N=C(\C(=O)N[C@@H]1C(=O)N2C(C(=O)O)=C(COC(C)=O)CS[C@H]12)c1csc(N)n1 [CTX, cefotaxime]",N,,N,N,N,WP?,N,N,
"CO/N=C(\C(=O)N[C@@H]1C(=O)N2C(C(=O)O)=C(CSc3nc(=O)c(O)nn3C)CS[C@H]12)c1csc(N)n1 [CRO, ceftriaxone]",N,N,,N,N,,N,N,
"C[C@H]1[C@H](NC(=O)/C(=N\OC(C)(C)C(=O)O)c2csc(N)n2)C(=O)N1S(=O)(=O)O [Aztreonam, aztreonam]",N,N,,N,N,N,N,N,Units of β-lactamase Activity (Nitrocefin as substrate) (E. coli V1104): 210; Reagent disk test result (indentation of inhibition zone = antibiotic inactivation) (SHV-1): N; Reagent disk test result (indentation of inhibition zone = antibiotic inactivation) (AmpC): N; Reagent disk test result (indentation of inhibition zone = antibiotic inactivation) (FOX-1): N; Reagent disk test result (indentation of inhibition zone = antibiotic inactivation) (LAT-1): N; Reagent disk test result (indentation of inhibition zone = antibiotic inactivation) (ACT-1): N
NC(CO)(CO)CO [Tris],,,,,,,,,Units of β-lactamase Activity (Nitrocefin as substrate) [2]: 41
CCN1CCN(C(=O)N[C@@H](C(=O)N[C@@H]2C(=O)N3[C@@H]2SC(C)(C)[C@@H]3C(=O)O)c2ccccc2)C(=O)C1=O [Piperacillin],,,,,,,,,Units of β-lactamase Activity (Nitrocefin as substrate) (E. coli V1104): 202
"C[C@@H](O)[C@H]1C(=O)N2C(C(=O)O)=C(S[C@@H]3CN[C@H](C(=O)Nc4cccc(C(=O)O)c4)C3)[C@H](C)[C@H]12 [ERT, ertapenem]",,,,,,,,,CACs detected by indirect TE disk test (Class A Carbapenemases): all; False positive results in indirect TE disk test (Class A Carbapenemases): no false positive results

# Reference: patent publication US7452691B2, “Device and method for detecting antibiotic inactivating enzymes” (priority 2005, dated 2008)
